Patent US4973673A, “Serine analogs of BU-3608 antibiotics” (Bristol-Myers Company, priority 1988, dated 1990)
Values after ≈ are worked out from the molar mass of the structure shown. Where two headings read alike, the source gives them in different places.

Columns and labels:
A. flavus FA21436 = test: Serial agar dilution MIC, Sabouraud dextrose agar; assay type: cell-based; details: Aspergillus flavus, pH 7.0, 40 hours at 28° C.
Protocol: (§1) Antifungal activities of representative compounds of the present invention were evaluated both in vitro and in vivo. The minimum inhibitory concentrations (MICs) against various fungi were determined by serial agar dilution method using Sabouraud dextrose agar. Thus, approximately 0.003 ml of fungal suspension containing 10^6 cells/ml was applied to the surface of agar plates containing the test antibiotics.

A. fumigatus IAM2034 [1] = test: Serial agar dilution MIC, Sabouraud dextrose agar; assay type: cell-based; details: Aspergillus fumigatus, pH 7.0, 40 hours at 28° C.
Protocol: as §1

[2] = system: Aspergillus fumigatus IAM2530; test: Serial agar dilution MIC, Sabouraud dextrose agar; assay type: cell-based; details: pH 7.0, 40 hours at 28° C.
Protocol: as §1

[3] = system: Blastomyces dermatitidis D40; test: Serial agar dilution MIC, Sabouraud dextrose agar; assay type: cell-based; details: pH 7.0, 40 hours at 28° C.
Protocol: as §1

C. albicans A9540 [4] = test: Serial agar dilution MIC, Sabouraud dextrose agar; assay type: cell-based; details: Candida albicans, pH 7.0, 40 hours at 28° C.
Protocol: as §1

C. neoformans IAM4514 [5] = test: Serial agar dilution MIC, Sabouraud dextrose agar; assay type: cell-based; details: Cryptococcus neoformans, pH 7.0, 40 hours at 28° C.
Protocol: as §1

Candida albicans IAM4888 = test: Serial agar dilution MIC, Sabouraud dextrose agar; assay type: cell-based; details: pH 7.0, 40 hours at 28° C.
Protocol: as §1

[6] = system: Cryptococcus neoformans D49; test: Serial agar dilution MIC, Sabouraud dextrose agar; assay type: cell-based; details: pH 7.0, 40 hours at 28° C.
Protocol: as §1

[7] = system: Fusarium moniliforme A2284; test: Serial agar dilution MIC, Sabouraud dextrose agar; assay type: cell-based; details: Fusarium verticillioides, pH 7.0, 40 hours at 28° C.
Protocol: as §1

Mucor spinosus IFO5317 = test: Serial agar dilution MIC, Sabouraud dextrose agar; assay type: cell-based; details: pH 7.0, 40 hours at 28° C.
Protocol: as §1

[8] = system: Petriellidium boydii IFO8073; test: Serial agar dilution MIC, Sabouraud dextrose agar; assay type: cell-based; details: Scedosporium boydii, pH 7.0, 40 hours at 28° C.
Protocol: as §1

[9] = system: Sporothrix schenckii IFO8158; test: Serial agar dilution MIC, Sabouraud dextrose agar; assay type: cell-based; details: pH 7.0, 40 hours at 28° C.
Protocol: as §1

T. mentagrophytes #4329 = test: Serial agar dilution MIC, Sabouraud dextrose agar; assay type: cell-based; details: Trichophyton mentagrophytes, pH 7.0, 40 hours at 28° C.
Protocol: as §1

[10] = system: Trichophyton mentagrophytes D155; test: Serial agar dilution MIC, Sabouraud dextrose agar; assay type: cell-based; details: pH 7.0, 40 hours at 28° C.
Protocol: as §1

A. fumigatus IAM2034 [11] = test: In vivo antifungal activity, intravenous infection in mice; design: species or system Male ICR mice; details: Aspergillus fumigatus, 480 h, survival on 20th day, read-out: PD50 (50% protective dose)
Protocol: (§2) In vivo antifungal activities were evaluated against intravenous infections with Candida albicans A9540, Cryptococcus neoformans IAM4514 and Aspergillus fumigatus IAM2034 in mice. Candida albicans and Cryptococcus neoformans were cultured for 18 and 48 hours, respectively, at 28° C. in YGP medium [yeast extract(0.2%), glucose(1.5%), peptone(0.5%), K2 HPO4 (0.05%) and MgSO4 (0.05%)] and suspended in saline. Aspergillus fumigatus was cultured for 7 days at 28° C. on YGP agar slant and suspended in saline. Spores were collected by filtering fungal suspension through gauze. Male ICR mice weighing 20 to 24 g were infected intravenously with about 10 times the median lethal dose of the fungi.
(§3) Test compounds were administered at various doses to groups of 5 mice each intravenously either once just after fungal challenge (day 0) or once daily for 5 days from day 0 to day 4 (qd×5). The 50% protective dose (PD50) was calculated from survival rates recorded on the 20th day after fungal challenge. All control animals died within 7 to 15 days after fungal infection.

C. albicans A9540 [12] = test: as above; design: species or system Male ICR mice; details: Candida albicans, 480 h, survival on 20th day, read-out: PD50 (50% protective dose)
Protocol: as §2, §3

C. neoformans IAM4514 [13] = test: as above; design: species or system Male ICR mice; details: Cryptococcus neoformans, 480 h, survival on 20th day, read-out: PD50 (50% protective dose)
Protocol: as §2, §3

mice = test: Acute toxicity (LD50) in mice, single intravenous dose; assay type: in vivo; details: at 600 mg/kg, the highest dose tested
Protocol: The LD50 for N,N-dimethyl BU-3608 FA-2 was determined in mice after a single intravenous dose.

[14] = system: calcium ion and calmodulin-dependent cyclic nucleotide phosphodiesterase; details: background statement; cited from earlier work
[15] = single dose just after challenge

Structure (SMILES) | MIC (A. flavus FA21436) [µg/mL] | MIC (A. fumigatus IAM2034 [1]) [µg/mL] | MIC [2] [µg/mL] | MIC [3] [µg/mL] | MIC (C. albicans A9540 [4]) [µg/mL] | MIC (C. neoformans IAM4514 [5]) [µg/mL] | MIC (Candida albicans IAM4888) [µg/mL] | MIC [6] [µg/mL] | MIC [7] [µg/mL] | MIC (Mucor spinosus IFO5317) [µg/mL] | MIC [8] [µg/mL] | MIC [9] [µg/mL] | MIC (T. mentagrophytes #4329) [µg/mL] | MIC [10] [µg/mL] | ED50 (C. albicans A9540 [12]; [15]) [mg/kg] | also measured
COc1cc(O)c2c(c1)C(=O)c1c(cc3c(c1O)-c1c(cc(C)c(C(=O)N[C@H](CO)C(=O)O)c1O)[C@H](O[C@@H]1O[C@H](C)[C@H](N)[C@H](O)[C@H]1O)[C@H]3O)C2=O [Des-xylosyl BU-3608 FA-2] | 50 (≈ 70.4 µM) | 12.5 (≈ 17.6 µM) | 12.5 (≈ 17.6 µM) | 6.3 (≈ 8.87 µM) | 3.1 (≈ 4.36 µM) | 3.1 (≈ 4.36 µM) | 3.1 (≈ 4.36 µM) | 3.1 (≈ 4.36 µM) | > 100 | 25 (≈ 35.2 µM) | > 100 | 6.3 (≈ 8.87 µM) | 12.5 (≈ 17.6 µM) | 12.5 (≈ 17.6 µM) | – | –
COc1cc(O)c2c(c1)C(=O)c1c(cc3c(c1O)-c1c(cc(C)c(C(=O)N[C@H](CO)C(=O)O)c1O)[C@H](O[C@@H]1O[C@H](C)[C@H](N(C)C)[C@H](O[C@@H]4OC[C@@H](O)[C@H](O)[C@H]4O)[C@H]1O)[C@H]3O)C2=O [N,N-dimethyl BU-3608 FA-2] | 25 (≈ 28.7 µM) | 3.1 (≈ 3.56 µM) | 3.1 (≈ 3.56 µM) | 6.3 (≈ 7.23 µM) | 6.3 (≈ 7.23 µM) | 0.8 (≈ 0.919 µM) | 3.1 (≈ 3.56 µM) | 0.8 (≈ 0.919 µM) | 25 (≈ 28.7 µM) | – | – | 1.6 (≈ 1.84 µM) | 6.3 (≈ 7.23 µM) | 12.5 (≈ 14.4 µM) | 9 | ED50 (A. fumigatus IAM2034 [11]; qd × 5 (day 0 to day 4)): 15 mg/kg; ED50 (A. fumigatus IAM2034 [11]; [15]): 36 mg/kg; ED50 (C. albicans A9540 [12]; qd × 5 (day 0 to day 4)): 7.5 mg/kg; ED50 (C. neoformans IAM4514 [13]; qd × 5 (day 0 to day 4)): 2.8 mg/kg; ED50 (C. neoformans IAM4514 [13]; [15]): 11 mg/kg; LD50 determination: lethal toxicity and toxic signs (mice): neither lethal toxicity nor any significant toxic sign was observed
CN[C@@H]1[C@H](O)[C@@H](O)[C@H](O[C@H]2c3cc(C)c(C(=O)N[C@H](CO)C(=O)O)c(O)c3-c3c(cc4c(c3O)C(=O)c3cc(OC)cc(O)c3C4=O)[C@@H]2O)O[C@@H]1C [Des-xylosyl BU-3608 FA-1] | 50 (≈ 69 µM) | 6.3 (≈ 8.69 µM) | 6.3 (≈ 8.69 µM) | 6.3 (≈ 8.69 µM) | 3.1 (≈ 4.28 µM) | 1.6 (≈ 2.21 µM) | 3.1 (≈ 4.28 µM) | 1.6 (≈ 2.21 µM) | > 100 | 12.5 (≈ 17.2 µM) | > 100 | 6.3 (≈ 8.69 µM) | 12.5 (≈ 17.2 µM) | 12.5 (≈ 17.2 µM) | – | –
CN[C@@H]1[C@H](O[C@@H]2OC[C@@H](O)[C@H](O)[C@H]2O)[C@@H](O)[C@H](O[C@H]2c3cc(C)c(C(=O)N[C@H](CO)C(=O)O)c(O)c3-c3c(cc4c(c3O)C(=O)c3cc(OC)cc(O)c3C4=O)[C@@H]2O)O[C@@H]1C [BU-3608 FA-1] | 6.3 (≈ 7.35 µM) | 6.3 (≈ 7.35 µM) | 3.1 (≈ 3.62 µM) | 3.1 (≈ 3.62 µM) | 12.5 (≈ 14.6 µM) | 0.8 (≈ 0.934 µM) | 6.3 (≈ 7.35 µM) | 0.8 (≈ 0.934 µM) | 6.3 (≈ 7.35 µM) | > 100 | 12.5 (≈ 14.6 µM) | 1.6 (≈ 1.87 µM) | 6.3 (≈ 7.35 µM) | 6.3 (≈ 7.35 µM) | 18 | –
CC(=O)Cc1cc2c(c(O)c1C(=O)O)-c1cc3c(c(O)c1CC2)C(=O)c1c(O)cc(O)cc1C3=O [KS-619-1] | – | – | – | – | – | – | – | – | – | – | – | – | – | – | – | inhibitor of calcium ion and calmodulin-dependent cyclic nucleotide phosphodiesterase [14]: inhibitor of calcium ion and calmodulin-dependentcyclic nucleotide phosphodiesterase
COc1cc(O)c2c(c1)C(=O)c1c(cc3c(c1O)-c1c(cc(C)c(C(=O)N[C@H](CO)C(=O)O)c1O)[C@H](O[C@@H]1O[C@H](C)[C@H](N(C)C)[C@H](O)[C@H]1O)[C@H]3O)C2=O [Des-xylosyl N,N-dimethyl BU-3608 FA-2] | 12.5 (≈ 16.9 µM) | 6.3 (≈ 8.53 µM) | 6.3 (≈ 8.53 µM) | 3.1 (≈ 4.2 µM) | 6.3 (≈ 8.53 µM) | 1.6 (≈ 2.17 µM) | 6.3 (≈ 8.53 µM) | 1.6 (≈ 2.17 µM) | 50 (≈ 67.7 µM) | 25 (≈ 33.8 µM) | 100 (≈ 135 µM) | 3.1 (≈ 4.2 µM) | 6.3 (≈ 8.53 µM) | 6.3 (≈ 8.53 µM) | – | –
COc1cc(O)c2c(c1)C(=O)c1c(cc3c(c1O)-c1c(cc(C)c(C(=O)N[C@H](CO)C(=O)O)c1O)[C@H](O[C@@H]1O[C@H](C)[C@H](N)[C@H](O[C@@H]4OC[C@@H](O)[C@H](O)[C@H]4O)[C@H]1O)[C@H]3O)C2=O [BU-3608 FA-2] | 6.3 (≈ 7.48 µM) | 6.3 (≈ 7.48 µM) | 3.1 (≈ 3.68 µM) | 3.1 (≈ 3.68 µM) | 6.3 (≈ 7.48 µM) | 0.8 (≈ 0.949 µM) | 6.3 (≈ 7.48 µM) | 0.8 (≈ 0.949 µM) | 6.3 (≈ 7.48 µM) | > 100 | 25 (≈ 29.7 µM) | 1.6 (≈ 1.9 µM) | 6.3 (≈ 7.48 µM) | 6.3 (≈ 7.48 µM) | 7.4 | –
